Measurements: patent US5294632A, “Phosphono/biaryl substituted dipetide derivatives” (Ciba-Geigy Corporation, priority 1992, dated 1994)

Legend:
[1] = target: T1, Neutral endopeptidase 3.4.24.11 (Rattus norvegicus, UniProt P07861); test: in vitro inhibition of neutral endopeptidase (NEP) 3.4.24.11, GAAP substrate assay; format: biochemical; settings: rat kidney cortex membranes, 500 μM GAAP substrate, pH 7.4, 25° C., 10 minutes
T1 construct: rat kidney cortex membranes prepared by method of Maeda et al, 1983; from tissue; host or cells: rat kidney cortex membranes
T1 sequence (P07861 1-750): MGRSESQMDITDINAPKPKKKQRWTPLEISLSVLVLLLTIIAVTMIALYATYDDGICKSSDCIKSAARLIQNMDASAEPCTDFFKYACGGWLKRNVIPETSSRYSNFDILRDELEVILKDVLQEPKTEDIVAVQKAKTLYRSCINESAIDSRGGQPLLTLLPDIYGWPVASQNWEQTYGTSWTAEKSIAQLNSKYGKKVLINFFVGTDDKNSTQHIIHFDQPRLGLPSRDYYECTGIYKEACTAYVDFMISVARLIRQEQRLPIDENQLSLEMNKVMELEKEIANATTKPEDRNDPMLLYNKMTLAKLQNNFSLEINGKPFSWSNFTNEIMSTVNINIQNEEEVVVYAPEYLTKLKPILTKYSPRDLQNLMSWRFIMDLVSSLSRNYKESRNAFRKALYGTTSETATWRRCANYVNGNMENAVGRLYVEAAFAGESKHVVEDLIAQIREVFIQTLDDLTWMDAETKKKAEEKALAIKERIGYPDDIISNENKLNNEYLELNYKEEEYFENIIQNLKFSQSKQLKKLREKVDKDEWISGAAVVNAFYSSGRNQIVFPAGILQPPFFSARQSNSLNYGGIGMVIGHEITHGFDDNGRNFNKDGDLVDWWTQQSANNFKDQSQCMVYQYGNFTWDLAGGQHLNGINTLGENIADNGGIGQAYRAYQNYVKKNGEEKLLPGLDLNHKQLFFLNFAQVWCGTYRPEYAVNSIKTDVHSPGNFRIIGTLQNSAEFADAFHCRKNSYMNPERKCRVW
Description: The in vitro inhibition of neutral endopeptidase (NEP) 3.4.24.11 can be determined as follows:
Neutral endopeptidase 3.4.24.11 activity is determined by the hydrolysis of the substrate glutaryl-Ala-Ala-Phe-2-naphthylamide (GAAP) using a modified procedure of Orlowski and Wilk (1981). The incubation mixture (total volume 125 μl) contains 4.2 μg of protein (rat kidney cortex membranes prepared by method of Maeda et al, 1983), 50 mM tris buffer, pH 7.4 at 25° C., 500 μM substrate (final concentration), and leucine aminopeptidase M (2.5 μg). The mixture is incubated for 10 minutes at 25° C. and 100 μl of fast garnet (250 μg fast garnet/ml of 10% Tween 20 in 1M sodium acetate, pH 4.2) is added. Enzyme activity is measured spectrophotometrically at 540 nm. One unit of NEP 24.11 activity is defined as 1 nmol of 2-naphthylamine released per minute at 25° C. at pH 7.4. IC50 values are determined, i.e. the concentration of test compound required for 50% inhibition of the release of 2-naphthylamine.
The test compound is dissolved in dimethyl sulfoxide or 0.25 M sodium bicarbonate solution, and the solution is diluted with pH 7.4 buffer to the desired concentration.
In vitro testing is most appropriate for the free phosphono/carboxylic acids of the invention.

[2] = test system: DOCA-salt hypertensive rats; test: antihypertensive effect in DOCA-salt hypertensive rats; format: in vivo; settings: 30 mg/kg p.o., in PEG 400; DOCA-salt hypertensive rat
Description: The antihypertensive effect can be determined in desoxycorticosterone acetate (DOCA)-salt hypertensive rats.
DOCA-salt hypertensive rats (280-380 g) are prepared by the standard method. Rats underwent a unilateral nephrectomy and one week later are implanted with silastic pellets containing 100 mg/kg of DOCA. The rats are maintained on 1% NaCl/0.2% KCl drinking water for three to five weeks until sustained hypertension is established. The antihypertensive activity is evaluated at this time.
Two days before an experiment, the rats are anesthetized with methoxyflurane and instrumented with catheters in the femoral artery to measure arterial blood pressure. Forty-eight hours later, baseline arterial pressure and heart rate are recorded during a 1 hour period. The test compound (30 mg/kg p.o.) or vehicle is then administered and the same cardiovascular parameters are monitored for an additional 5 hours.

plasma ANF levels = test: effect on rat plasma ANF concentration during ANF infusion; format: in vivo, Male Sprague-Dawley rats; settings: about 1-30 mg/kg p.o., in 10% ethanol/polyethylene glycol 400; ANF infused 450 ng/kg/min i.v.
Description: The effect of the compounds of the invention on rat plasma ANF concentration can be determined as follows:
Male Sprague-Dawley rats (275-390 g) are anesthetized with ketamine (150 mg/kg)/acepromazine (10%) and instrumented with catheters in the femoral artery and vein to obtain blood samples and infuse ANF, respectively. The rats are tethered with a swivel system and are allowed to recover for 24 hours before being studied in the conscious, unrestrained state.
In this assay, plasma ANF levels are determined in the presence and absence of NEP inhibition. On the day of study, all rats are infused continuously with ANF at 450 ng/kg/min. i.v. for the entire 5 hours of the experiment. Sixty minutes after beginning the infusion, blood samples for baseline ANF measurements are obtained (time 0) and the rats are then randomly divided into groups treated with the test compound or vehicle. Additional blood samples are taken 30, 60, 120, 180 and 240 minutes after administration of the test compound.
Plasma concentrations are determined by a specific radioimmunoassay. […] The supernatant is decanted and the pellets counted in a gamma counter. […] Plasma ANF levels are expressed as a percent of those measured in vehicle-treated animals which received ANF alone (450 ng/kg/min i.v.).

ANF-induced natriuresis = test: potentiation of the natriuretic effect of ANF in anesthetized rats; format: in vivo, Male Sprague-Dawley rats; settings: 30 mg/Kg in polyethylene glycol 400, intraduodenally; ANF 1 μg/kg i.v. bolus
Description: The potentiation of the natriuretic effect of ANF can be determined as follows:
Male Sprague-Dawley rats (280-360 g) are anesthetized with Inactin (100 mg/kg i.p.) and instrumented with catheters in the femoral artery, femoral vein and urinary bladder to measure arterial pressure, administer ANF and collect urine, respectively. A continuous infusion of normal saline (33 μl/min) is maintained throughout the experiment to promote diuresis and sodium excretion. The experimental protocol consists of an initial 15 minute collection period (designated as pre-control) followed by three additional collection periods. Immediately after completion of the pre-control period, test compound or vehicle is administered; nothing is done for the next 45 minutes. […] At the conclusion of this period, ANF is administered (1 μg/kg i.v. bolus) to all animals and arterial pressure and renal parameters are determined during two consecutive 15 minutes collection periods.
Mean arterial pressure, urine flow and urinary sodium excretion are determined for all collection periods. Blood pressure is measured with a Gould p50 pressure transducer, urine flow is determined gravimetrically, sodium concentration is measured by flame photometry, and urinary sodium excretion is calculated as the product of urine flow and urine sodium concentration.

| IC50 [1] | SMILES | reduction in blood pressure [2] | increase in plasma ANF levels (plasma ANF levels) | potentiation of ANF-induced natriuresis (ANF-induced natriuresis) |
| --- | --- | --- | --- | --- |
| ~1.6 nM | O=C(O)CCNC(=O)[C@H](Cc1ccc(-c2ccccc2)cc1)NCP(=O)(O)O [(S)-antipode, S-(+)-N-[2-(phosphonomethylamino)-3-(4-biphenylyl)-propionyl]-3-aminopropionic acid] | – | – | – |
| – | O=C(O)CCNC(=O)[C@H](Cc1ccc(-c2ccccc2)cc1)NCP(=O)(Oc1ccccc1)Oc1ccccc1 [(S)-N-[2-(diphenylphosphonomethylamino)-3-(4-biphenylyl)propionyl]-3-aminopropionic acid] | significant reduction in blood pressure | significant increases in plasma ANF levels | significant potentiation of ANF-induced natriuresis |
| ~4.3 nM | O=C(O)CCNC(=O)C(Cc1ccc(-c2ccccc2)cc1)NCP(=O)(O)O (centres unmarked) [N-[2-(phosphonomethylamino)-3-(4-biphenylyl)-propionyl]-3-aminopropionic acid] | – | – | – |
